Laboratory results reported in patent publication US12448358B2, “Inhibitors of protein arginine deiminase 1 and methods of preparation and use thereof” (University of Massachusetts, priority 2019, dated 2025).

How the values were obtained:
PAD1 [1] = molecular target: T1, PAD1 (Homo sapiens, UniProt Q9ULC6); test: Limit of detection for in vitro labelling of recombinant PAD1 by probe; format: binding; conditions: 10 μM probe, conjugated with TAMRA-N3 using CuAAC
T1 construct: made in house
T1 sequence (Q9ULC6 1-663): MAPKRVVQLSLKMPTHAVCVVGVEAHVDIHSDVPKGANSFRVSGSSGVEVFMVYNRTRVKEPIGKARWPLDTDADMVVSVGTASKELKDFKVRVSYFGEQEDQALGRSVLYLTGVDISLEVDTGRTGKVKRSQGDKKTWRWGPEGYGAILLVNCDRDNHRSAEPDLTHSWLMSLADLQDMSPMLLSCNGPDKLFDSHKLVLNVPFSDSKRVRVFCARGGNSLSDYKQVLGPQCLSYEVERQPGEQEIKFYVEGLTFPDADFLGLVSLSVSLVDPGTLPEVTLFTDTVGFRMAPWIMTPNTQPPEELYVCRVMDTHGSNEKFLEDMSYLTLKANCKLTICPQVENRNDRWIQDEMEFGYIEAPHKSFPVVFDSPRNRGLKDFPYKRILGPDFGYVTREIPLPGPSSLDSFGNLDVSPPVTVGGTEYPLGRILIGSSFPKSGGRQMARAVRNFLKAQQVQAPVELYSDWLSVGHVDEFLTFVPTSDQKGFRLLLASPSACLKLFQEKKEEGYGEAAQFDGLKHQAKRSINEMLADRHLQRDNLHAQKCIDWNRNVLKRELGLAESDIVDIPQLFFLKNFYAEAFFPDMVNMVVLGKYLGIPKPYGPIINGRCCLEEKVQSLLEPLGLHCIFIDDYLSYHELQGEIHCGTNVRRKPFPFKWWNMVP
Method: Dose-dependent in vitro Labelling of Recombinant PADs with 21 and 22. A PAD (1.4 μM) was added to a prewarmed (10 min at 37° C.) reaction mixture (25 mM TRIS pH 7.4, 10 mM NaCl, and 5 mM CaCl2) containing various concentrations of 21 or 22 (or equal volume of DMSO for control). The mixture was incubated at 37° C. for 15 min. Then TAMRA-N3 (50 μM), TCEP (1 mM), TBTA (0.3 mM) and freshly prepared copper (II) sulphate (1 mM) were sequentially added to the reaction mixture and the tubes were gently tumbled at room temperature for 2 h. Then the reactions were quenched with 5×SDS-PAGE loading dye, heated at 95° C. for 15 min and loaded onto 4-15% gradient SDS-PAGE gel. Protein bands were visualized by recording in-gel fluorescence using a typhoon scanner (approximate excitation/emission maxima ˜546/579, respectively). All the experiments were performed at least in duplicate.
Limit of Detection for in vitro Labelling of Recombinant PADs with 21 and 22. Various concentrations of PAD were added to prewarmed (10 min at 37° C.) reaction mixtures (25 mM TRIS pH 7.4, 10 mM NaCl, 5 mM CaCl2) containing 10 μM of 21 or 22. […] Protein bands were visualized by recording in-gel fluorescence using a typhoon scanner (approximate excitation/emission maxima ˜546/579, respectively). […]

pronuclear mouse zygotes = test: Early embryo development of pronuclear mouse zygotes; format: cell-based; conditions: 100 μM inhibitor, 100 h of culture, 87% of control zygotes reached blastocyst stage
Method: (§1) In Vitro Fertilization. Female ICR mice (4-6 weeks) were injected intraperitoneally with 10 international units (IU) of pregnant mare serum gonadotropin (PMSG) and after 46 h, 10 IU of human chorionicgonadotropin (hCG). After 16 h, cumulus masses were released from oviducts into HEPES-buffered HTF culture medium (HTF) (InVitro Care, Frederick, MD). Cauda epididymal mouse spermatozoa were released and placed in drops of HTF culture medium (InVitro Care). Then the sperm suspensions were added to the cumulus mass drops with a final concentration of approximately 1-3×10^5/mL. Zygotes were collected and transferred to KSOM medium containing 100 μM PAD1 inhibitor or equal volume of DMSO as a control. Then 4-cell and blastocyst stage embryos were collected after 48 and 100 h of culture, respectively.

PAD1 [2] = molecular target: T2, PAD1 (Mus musculus, UniProt Q9Z185); test: Histone H3 citrullination in mouse embryos (immunofluorescence, confocal microscopy); format: cell-based; conditions: mouse embryos at the 4-cell stage, 100 μM inhibitor
T2 construct: endogenously expressed cellular PAD1 in mouse zygotes; endogenous in cells; host or cells: ICR mouse zygotes / 4-cell embryos from in vitro fertilization
T2 sequence (Q9Z185 1-662): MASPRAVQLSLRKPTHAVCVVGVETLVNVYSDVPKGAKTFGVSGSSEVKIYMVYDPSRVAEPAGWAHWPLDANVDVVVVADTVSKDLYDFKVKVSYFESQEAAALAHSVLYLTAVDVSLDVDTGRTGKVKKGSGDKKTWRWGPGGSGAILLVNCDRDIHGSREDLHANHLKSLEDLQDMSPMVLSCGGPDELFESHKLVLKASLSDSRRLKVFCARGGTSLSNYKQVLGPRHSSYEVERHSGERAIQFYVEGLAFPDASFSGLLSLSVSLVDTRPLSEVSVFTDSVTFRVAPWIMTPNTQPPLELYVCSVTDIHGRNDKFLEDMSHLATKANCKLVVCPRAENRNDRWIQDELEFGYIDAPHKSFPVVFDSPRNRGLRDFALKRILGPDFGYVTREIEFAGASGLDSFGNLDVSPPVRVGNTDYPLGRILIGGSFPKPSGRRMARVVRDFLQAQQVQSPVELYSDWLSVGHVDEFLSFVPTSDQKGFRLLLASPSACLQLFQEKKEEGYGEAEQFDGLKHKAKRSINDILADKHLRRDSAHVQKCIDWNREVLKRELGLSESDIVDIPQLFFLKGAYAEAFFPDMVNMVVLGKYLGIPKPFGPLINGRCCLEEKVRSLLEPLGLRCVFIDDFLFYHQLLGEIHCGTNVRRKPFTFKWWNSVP
Method: as §1
Immunofluorescent and Confocal Microscopy. Embryos were fixed in 4% paraformaldehyde in PBS (pH 7.4) for 30 min and then permeabilized in 0.5% Triton X-100 for 30 min at room temperature. After blocking in 1% BSA/PBS at room temperature for 1 h, samples were incubated with anti-H3Cit2/8/17 antibody (Catalogue no. ab77164, Abcam) (1:100) at 4° C. for 12 h. After five washes, samples were incubated with FITC-conjugated secondary antibody for 1 h at room temperature. Nuclei were counterstained with DAPI for 5 min. […]

| limit of detection (LOD) of recombinant PAD1 (PAD1 [1]) [pmol] | Structure (SMILES) | Effect on early embryo development (pronuclear mouse zygotes) | Inhibition of histone H3 citrullination in embryos (PAD1 [2]) |
| --- | --- | --- | --- |
| 4.3 | C#Cc1c(I)cc(C(=O)N[C@@H](CCCNC(=N)CF)c2nc3ccccc3[nH]2)c(O)c1I [Compound 21] |  |  |
|  | N=C(CF)NCCC[C@H](NC(=O)c1cc(I)cc(I)c1O)c1nc2ccccc2[nH]1 [Compound 1] | dramatic arrest of embryo development at the morula stage | dramatically inhibit histone H3 citrullination |
|  | N=C(CF)NCCC[C@H](NC(=O)c1cc(I)c(F)c(I)c1O)c1nc2ccccc2[nH]1 [Compound 19] | dramatic arrest of embryo development at the morula stage | dramatically inhibit histone H3 citrullination |
